Numbered stars: 1 amine (or outer) side, 2 acyl side, 3 side chain; on linkers, the order of the positions; unused ones are H or OH. Square brackets hold non-standard residues; d marks the D form. Side chains are listed from the residue outwards. Peptide text beside a SMILES is read from it. * marks the point of attachment. C20 diacid = O=C(O)CCCCCCCCCCCCCCCCCCC(=O)*; αMePhe(2-F) = C[C@](N)(Cc1ccccc1F)C(=O)O; γGlu = O=C(O)[C@H](CCC(=O)[*:2])N[*:1]; αMeF = C[C@](N)(Cc1ccccc1)C(=O)O; αMeL = CC(C)C[C@](C)(N)C(=O)O; Orn = NCCC[C@H](N)C(=O)O; AEEA = NCCOCCOCC(=O)O; Aib = CC(C)(N)C(=O)O
What was measured:
[1] = biological target: T1, gastric inhibitory peptide receptor (GIPR) (Homo sapiens, UniProt P48546); experiment: cAMP pharmacological functional assay in presence of casein, hGIPR; format: cell-based; conditions: HEK293 cells expressing hGIPR, 0.1% Casein, geometric mean; read-out: hGIPR cAMP Rel EC50 nM (SEM, n)
T1 sequence (P48546 22-466): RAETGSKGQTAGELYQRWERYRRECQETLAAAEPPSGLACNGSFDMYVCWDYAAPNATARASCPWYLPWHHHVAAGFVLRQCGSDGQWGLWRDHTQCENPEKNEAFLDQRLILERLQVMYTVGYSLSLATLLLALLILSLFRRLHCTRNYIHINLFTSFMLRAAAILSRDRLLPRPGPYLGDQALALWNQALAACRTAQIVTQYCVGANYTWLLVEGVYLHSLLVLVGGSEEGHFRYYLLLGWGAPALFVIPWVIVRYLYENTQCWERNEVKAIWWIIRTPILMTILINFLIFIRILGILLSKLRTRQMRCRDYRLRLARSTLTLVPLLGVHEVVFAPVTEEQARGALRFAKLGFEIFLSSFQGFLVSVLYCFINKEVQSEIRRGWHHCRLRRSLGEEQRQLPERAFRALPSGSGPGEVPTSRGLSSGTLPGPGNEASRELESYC

[2] = biological target: human GLP-1 receptor (GLP-1R) (Homo sapiens, UniProt P43220); experiment: cAMP pharmacological functional assay in presence of casein, hGLP-1R; format: cell-based; conditions: HEK293 cells expressing hGLP-1R, 0.1% Casein, geometric mean; read-out: hGLP1R cAMP Rel EC50 nM (SEM, n)
human GLP-1 receptor (GLP-1R), sequence (P43220 24-463): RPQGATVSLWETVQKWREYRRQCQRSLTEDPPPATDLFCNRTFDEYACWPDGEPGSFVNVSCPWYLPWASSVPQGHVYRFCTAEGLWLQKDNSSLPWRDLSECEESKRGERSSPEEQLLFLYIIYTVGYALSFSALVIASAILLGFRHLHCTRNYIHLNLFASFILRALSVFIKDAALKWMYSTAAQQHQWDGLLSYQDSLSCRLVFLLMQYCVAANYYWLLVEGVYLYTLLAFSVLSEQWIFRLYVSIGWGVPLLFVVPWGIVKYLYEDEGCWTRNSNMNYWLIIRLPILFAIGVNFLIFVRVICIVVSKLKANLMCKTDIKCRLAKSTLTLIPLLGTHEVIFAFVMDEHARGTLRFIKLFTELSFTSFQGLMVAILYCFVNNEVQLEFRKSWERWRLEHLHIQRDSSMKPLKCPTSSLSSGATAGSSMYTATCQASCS

Row | SMILES | EC50 [1] [nM] | EC50 [2] [nM]
1 | CC[C@H](C)[C@H](NC(=O)[C@H](CC(C)C)NC(=O)[C@H](Cc1ccc(O)cc1)NC(=O)[C@@H](CCC(=O)O)NC(=O)[C@@H](NC(=O)[C@H](Cc1ccccc1)NC(=O)[C@H](CCC(=O)O)NC(=O)C(C)(C)NC(=O)[C@H](CCC(N)=O)NC(=O)[C@H](C)NC(=O)[C@H](CCC(N)=O)NC(=O)[C@H](CCCN)NC(=O)[C@H](CC(=O)O)NC(=O)[C@H](CC(C)C)NC(=O)[C@](C)(CC(C)C)NC(=O)[C@@H](NC(=O)[C@H](CO)NC(=O)[C@H](Cc1ccc(O)cc1)NC(=O)[C@H](CC(=O)O)NC(=O)[C@H](CO)NC(=O)[C@@H](NC(=O)[C@](C)(Cc1ccccc1F)NC(=O)[C@@H](NC(=O)CNC(=O)[C@H](CCC(=O)O)NC(=O)C(C)(C)NC(=O)[C@@H](N)Cc1ccc(O)cc1)[C@@H](C)O)[C@@H](C)O)[C@@H](C)CC)[C@@H](C)CC)C(=O)N[C@@H](CCC(=O)O)C(=O)NCC(=O)NCC(=O)N1CCC[C@H]1C(=O)N[C@@H](CO)C(=O)N[C@@H](CO)C(=O)NCC(=O)N[C@@H](C)C(=O)N1CCC[C@H]1C(=O)N1CCC[C@H]1C(=O)N1CCC[C@H]1C(=O)N[C@@H](CO)C(=O)N[C@@H](CS)C(N)=O [Example 283] (H-Y[Aib]EGT[αMePhe(2-F)]TSDYSI[αMeL]LD[Orn]QAQ[Aib]EFI[dE]YLIEGGPSSGAPPPSC-NH2) | 0.301 | 0.155
2 | CC[C@H](C)[C@H](NC(=O)[C@H](CC(C)C)NC(=O)[C@H](Cc1ccc(O)cc1)NC(=O)[C@H](CCC(=O)O)NC(=O)[C@@H](NC(=O)[C@H](Cc1ccccc1)NC(=O)[C@H](C)NC(=O)C(C)(C)NC(=O)[C@H](CCC(N)=O)NC(=O)[C@H](C)NC(=O)[C@H](CCCCNC(=O)COCCOCCNC(=O)COCCOCCNC(=O)CC[C@H](NC(=O)CCCCCCCCCCCCCCCCCCC(=O)O)C(=O)O)NC(=O)[C@H](CCCCN)NC(=O)[C@H](CC(=O)O)NC(=O)[C@H](CC(C)C)NC(=O)[C@H](CC(C)C)NC(=O)[C@@H](NC(=O)[C@H](CO)NC(=O)[C@H](C)NC(=O)[C@H](CC(=O)O)NC(=O)[C@H](CO)NC(=O)[C@@H](NC(=O)[C@H](Cc1ccccc1)NC(=O)[C@@H](NC(=O)CNC(=O)[C@H](CCC(=O)O)NC(=O)C(C)(C)NC(=O)[C@@H](N)Cc1ccc(O)cc1)[C@@H](C)O)[C@@H](C)O)[C@@H](C)CC)[C@@H](C)CC)C(=O)N[C@@H](CCC(=O)O)C(=O)N[C@@H](C)C(=O)NCC(=O)N1CCC[C@H]1C(=O)N[C@@H](CO)C(=O)N[C@@H](CO)C(=O)NCC(=O)N[C@@H](C)C(=O)N1CCC[C@H]1C(=O)N1CCC[C@H]1C(=O)N1CCC[C@H]1C(=O)N[C@@H](CO)C(N)=O [Example 136] (H-Y[Aib]EGTFTSDASILLDKK([AEEA-AEEA-γGlu-C20 diacid])AQ[Aib]AFIEYLIEAGPSSGAPPPS-NH2) | 3.39 | 0.06
3 | CC[C@H](C)[C@H](NC(=O)[C@H](CC(C)C)NC(=O)[C@H](Cc1ccc(O)cc1)NC(=O)[C@@H](CCC(=O)O)NC(=O)[C@@H](NC(=O)[C@H](Cc1ccccc1)NC(=O)[C@@H](NC(=O)C(C)(C)NC(=O)[C@H](CCC(N)=O)NC(=O)[C@H](C)NC(=O)[C@H](CCCCNC(=O)COCCOCCNC(=O)COCCOCCNC(=O)CC[C@H](NC(=O)CCCCCCCCCCCCCCCCCCC(=O)O)C(=O)O)NC(=O)[C@H](CCC(=O)O)NC(=O)[C@H](CC(=O)O)NC(=O)[C@H](CC(C)C)NC(=O)[C@](C)(CC(C)C)NC(=O)[C@@H](NC(=O)[C@H](CO)NC(=O)[C@H](Cc1c[nH]cn1)NC(=O)[C@H](CC(=O)O)NC(=O)[C@H](CO)NC(=O)[C@@H](NC(=O)[C@](C)(Cc1ccccc1F)NC(=O)[C@@H](NC(=O)CNC(=O)[C@H](CCC(=O)O)NC(=O)C(C)(C)NC(=O)[C@@H](N)Cc1ccc(O)cc1)[C@@H](C)O)[C@@H](C)O)[C@@H](C)CC)[C@@H](C)O)[C@@H](C)CC)C(=O)N[C@@H](CCC(=O)O)C(=O)NCC(=O)NCC(N)=O [Example 166] (H-Y[Aib]EGT[αMePhe(2-F)]TSDHSI[αMeL]LDEK([AEEA-AEEA-γGlu-C20 diacid])AQ[Aib]TFI[dE]YLIEGG-NH2; N-terminus assumed) | 0.355 | 4.08
4 | CC[C@H](C)[C@H](NC(=O)[C@H](CCCCN)NC(=O)[C@H](CC(=O)O)NC(=O)[C@H](CC(C)C)NC(=O)[C@H](CC(C)C)NC(=O)[C@@H](NC(=O)[C@H](CO)NC(=O)[C@H](CCCCNC(=O)COCCOCCNC(=O)COCCOCCNC(=O)CC[C@H](NC(=O)CCCCCCCCCCCCCCCCCCC(=O)O)C(=O)O)NC(=O)[C@H](CC(=O)O)NC(=O)[C@H](CO)NC(=O)[C@@H](NC(=O)[C@](C)(Cc1ccccc1)NC(=O)[C@@H](NC(=O)CNC(=O)[C@H](CCC(=O)O)NC(=O)C(C)(C)NC(=O)[C@@H](N)Cc1ccc(O)cc1)[C@@H](C)O)[C@@H](C)O)[C@@H](C)CC)C(=O)N[C@@H](C)C(=O)N[C@@H](CCC(N)=O)C(=O)NC(C)(C)C(=O)N[C@@H](C)C(=O)N[C@@H](Cc1ccccc1)C(=O)N[C@H](C(=O)N[C@@H](CCC(=O)O)C(=O)N[C@@H](Cc1ccc(O)cc1)C(=O)N[C@@H](CC(C)C)C(=O)N[C@H](C(=O)N[C@@H](CCC(=O)O)C(=O)NCC(=O)NCC(N)=O)[C@@H](C)CC)[C@@H](C)CC [Example 92] (H-Y[Aib]EGT[αMeF]TSDK([AEEA-AEEA-γGlu-C20 diacid])SILLDKIAQ[Aib]AFIEYLIEGG-NH2) | 0.338 | 0.257
5 | CC[C@H](C)[C@H](NC(=O)[C@H](CC(C)C)NC(=O)[C@H](Cc1ccc(O)cc1)NC(=O)[C@@H](CCC(=O)O)NC(=O)[C@@H](NC(=O)[C@H](Cc1ccccc1)NC(=O)[C@H](CCC(=O)O)NC(=O)C(C)(C)NC(=O)[C@H](CCC(N)=O)NC(=O)[C@H](C)NC(=O)[C@H](CCCCN)NC(=O)[C@H](CCC(=O)O)NC(=O)[C@H](CC(=O)O)NC(=O)[C@H](CC(C)C)NC(=O)[C@](C)(CC(C)C)NC(=O)[C@@H](NC(=O)[C@H](CO)NC(=O)[C@H](Cc1ccc(O)cc1)NC(=O)[C@H](CC(=O)O)NC(=O)[C@H](CO)NC(=O)[C@@H](NC(=O)[C@](C)(Cc1ccccc1F)NC(=O)[C@@H](NC(=O)CNC(=O)[C@H](CCC(=O)O)NC(=O)C(C)(C)NC(=O)[C@@H](N)Cc1ccc(O)cc1)[C@@H](C)O)[C@@H](C)O)[C@@H](C)CC)[C@@H](C)CC)C(=O)N[C@@H](CCC(=O)O)C(=O)NCC(=O)NCC(=O)N1CCC[C@H]1C(=O)N[C@@H](CO)C(=O)N[C@@H](CO)C(=O)NCC(=O)N[C@@H](C)C(=O)N1CCC[C@H]1C(=O)N1CCC[C@H]1C(=O)N1CCC[C@H]1C(=O)N[C@@H](CO)C(=O)N[C@@H](CS)C(N)=O [Example 278] (H-Y[Aib]EGT[αMePhe(2-F)]TSDYSI[αMeL]LDEKAQ[Aib]EFI[dE]YLIEGGPSSGAPPPSC-NH2; N-terminus assumed) | 0.293 | 0.123
